Reference: patent publication US20230348369A1 (Cytokinetics, Inc., priority 2020, published 2023)
Like-named read-outs stand apart in the source and are kept apart here.

Biological target: human NAMPT (Homo sapiens, UniProt P43490)
Experiment: Human recombinant enzyme assay (NMN fluorescence biochemical assay, activation of NAMPT)
Method in brief: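 Activation of recombinant human NAMPT (6 nM) with 2.5 mM ATP, 20 μM PRPP and 150 μM nicotinamide in 50 mM HEPES pH 7.2, 1 mM DTT, 1 mM CHAPS, 50 mM NaCl, 100 mM MgCl2; 60 min, ambient temperature. NMN formed was derivatized with acetophenone/KOH/formic acid, fluorescence read at 355/460 nm after 40 min.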

[1] = Table A, human recombinant NAMPT, NMN formation, 60 min
[2] = Table A, human recombinant NAMPT, NMN formation, 60 min, read-out: EC50 Human

Chain of human NAMPT (P43490 whole entry): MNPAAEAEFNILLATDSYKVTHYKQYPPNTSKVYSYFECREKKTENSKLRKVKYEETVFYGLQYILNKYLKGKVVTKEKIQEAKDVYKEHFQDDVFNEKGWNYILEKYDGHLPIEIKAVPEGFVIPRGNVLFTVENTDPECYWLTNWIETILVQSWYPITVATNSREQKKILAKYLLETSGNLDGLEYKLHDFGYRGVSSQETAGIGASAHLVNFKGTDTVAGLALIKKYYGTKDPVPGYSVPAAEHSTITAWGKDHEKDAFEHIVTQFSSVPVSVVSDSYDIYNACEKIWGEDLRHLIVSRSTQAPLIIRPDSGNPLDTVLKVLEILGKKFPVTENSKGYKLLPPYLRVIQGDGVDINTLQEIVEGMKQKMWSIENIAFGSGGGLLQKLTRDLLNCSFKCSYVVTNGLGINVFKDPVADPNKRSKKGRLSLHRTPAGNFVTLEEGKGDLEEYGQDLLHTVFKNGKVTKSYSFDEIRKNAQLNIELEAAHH

| SMILES | AC1.4 Human [1] [µM] | EC50 [2] [µM] | EC50 [µM] |
| --- | --- | --- | --- |
| COc1ccc(CNC(=O)NC2CC3(C2)CC(C(=O)N2CCCc4ccc(C)cc42)C3)cc1 (stereo not shown) [Compound 108, 1-(4-methoxybenzyl)-3-(6-(7-methyl-1,2,3,4-tetrahydroquinoline-1-carbonyl)spiro[3.3]heptan-2-yl)urea] | 0.1 | 1.4 | – |
| COc1ccc(CNC(=O)N[C@H]2C[C@]3(CCN(C(=O)OC(C)(C)C)C3)C2)cc1 [Compound 81, tert-butyl (2r,4s)-2-(3-(4-methoxybenzyl)ureido)-6-azaspiro[3.4]octane-6-carboxylate] | 12.5 | 37.2 | – |
| COc1ccc(CNC(=O)NC2CC3(C2)CN(S(=O)(=O)Cc2ccccc2Cl)C3)cc1 [Compound 117, 1-(2-((2-chlorobenzyl)sulfonyl)-2-azaspiro[3.3]heptan-6-yl)-3-(4-methoxybenzyl)urea] | 3.2 | 33.9 | – |
| COc1ccc(CNC(=O)NC2CC3(C2)CC(C(=O)NC2Cc4ccccc4C2)C3)cc1 (stereo not shown) [Compound 95, N-(2,3-dihydro-1H-inden-2-yl)-6-(3-(4-methoxybenzyl)ureido)spiro[3.3]heptane-2-carboxamide] | 4.3 | 13.3 | – |
| COc1ccc(CNC(=O)NC2CC3(C2)CC(C(=O)N2CCCc4cc(OC(F)(F)F)ccc42)C3)cc1 (stereo not shown) [Compound 107, 1-(4-methoxybenzyl)-3-(6-(6-(trifluoromethoxy)-1,2,3,4-tetrahydroquinoline-1-carbonyl)spiro[3.3]heptan-2-yl)urea] | 2.9 | 48.8 | – |
| COc1ccc(CNC(=O)NC2CC3(C2)CN(S(=O)(=O)c2ccccc2Cl)C3)cc1 [Compound 116, 1-(2-((2-chlorophenyl)sulfonyl)-2-azaspiro[3.3]heptan-6-yl)-3-(4-methoxybenzyl)urea] | 8.0 | – | 51.3 |
| COc1ccc(CNC(=O)NC2CC3(CC(Cc4cccc(C)c4)C3)C2)cc1 (stereo not shown) [Compound 335, 1-(4-Methoxybenzyl)-3-(6-(3-methylbenzyl)spiro[3.3]heptan-2-yl)urea] | 1.1 | 2.2 | – |
| CC(C)(C)OC(=O)N1CCC2(CC1)CC2CNC(=O)NCc1ccncc1 (stereo not shown) [Compound 25, tert-butyl 1-((3-(pyridin-4-ylmethyl)ureido)methyl)-6-azaspiro[2.5]octane-6-carboxylate] | 5.0 | 27.4 | – |
| COc1ccc(CNC(=O)NC2CC3(C2)CC(C(=O)N[C@H]2CCc4ccccc42)C3)cc1 (stereo partly drawn) [Compound 92, (S)-N-(2,3-dihydro-1H-inden-1-yl)-6-(3-(4-methoxybenzyl)ureido)spiro[3.3]heptane-2-carboxamide] | 2.9 | 13.5 | – |
| COc1ccc(CNC(=O)NC2CC3(CC(CN4Cc5ccccc5C4)C3)C2)cc1 (stereo not shown) [Compound 129, 1-(6-(isoindolin-2-ylmethyl)spiro[3.3]heptan-2-yl)-3-(4-methoxybenzyl)urea] | 7.3 | 30.2 | – |
| COc1ccc(CNC(=O)NC2CC3(C2)CC(C(=O)NCC(C)(C)c2ccccc2OC)C3)cc1 (stereo not shown) [Compound 64, 6-(3-(4-methoxybenzyl)ureido)-N-(2-(2-methoxyphenyl)-2-methylpropyl)spiro[3.3]heptane-2-carboxamide] | 1.4 | 50.1 | – |
| COc1ccc(CNC(=O)NC2CC3(C2)CC(C(=O)NC2CC(CO)c4ccccc42)C3)cc1 (stereo not shown) [Compound 93, N-(3-(hydroxymethyl)-2,3-dihydro-1H-inden-1-yl)-6-(3-(4-methoxybenzyl)ureido)spiro[3.3]heptane-2-carboxamide] | 6.3 | 34.8 | – |
| COc1ccc(CNC(=O)NC2CC3(C2)CC(C(=O)NCCc2cn[nH]c2)C3)cc1 (stereo not shown) [Compound 75, N-(2-(1H-pyrazol-4-yl)ethyl)-6-(3-(4-methoxybenzyl)ureido)spiro[3.3]heptane-2-carboxamide] | 11.5 | 42 | – |
| COc1ccc(CNC(=O)NC2CC3(C2)CC(C(=O)NCc2ccncc2)C3)cc1 (stereo not shown) [Compound 50, 6-(3-(4-methoxybenzyl)ureido)-N-(pyridin-4-ylmethyl)spiro[3.3]heptane-2-carboxamide] | 17.9 | 32.8 | – |
| CC(C)(C)OC(=O)NC1CC2(CC(NC(=O)NCc3ccncc3)C2)C1 (stereo not shown) [Compound 6, tert-butyl (6-(3-(pyridin-4-ylmethyl)ureido)spiro[3.3]heptan-2-yl)carbamate] | 4.5 | 26.8 | – |
| COc1ccc(CNC(=O)NC2CC3(C2)CN(C(=O)c2cccc(N(C)C)c2)C3)cc1 [Compound 178, 1-(2-(3-(dimethylamino)benzoyl)-2-azaspiro[3.3]heptan-6-yl)-3-(4-methoxybenzyl)urea] | 3.1 | 21.4 | – |
| COc1ccc(CNC(=O)NC2CC3(C2)CC(C(=O)NCc2ccnc(OC(F)F)c2)C3)cc1 (stereo not shown) [Compound 88, N-((2-(difluoromethoxy)pyridin-4-yl)methyl)-6-(3-(4-methoxybenzyl)ureido)spiro[3.3]heptane-2-carboxamide] | 16.3 | 48.8 | – |

Now from value to compound, other results behind:

| AC1.4 Human [1] [µM] | EC50 [2] [µM] | SMILES | EC50 [µM] |
| --- | --- | --- | --- |
| 8.6 | 59.4 | O=C(NCCCCCC(=O)N1CCOCC1)NCc1ccc(Cl)cc1 [Compound 259, 1-(4-chlorobenzyl)-3-(6-morpholine-6-oxohexyl)urea] | – |
| 8.8 | 5.9 | COc1cccc(C(=O)NC2CC3(CC(NC(=O)NCc4ccc(Cl)cc4)C3)C2)c1 (stereo not shown) [Compound 194, N-(6-(3-(4-chlorobenzyl)ureido)spiro[3.3]heptan-2-yl)-3-methoxybenzamide] | – |
| 13.2 | 22.5 | COc1ccccc1S(=O)(=O)N1CC2(CC(NC(=O)NCc3ccc(Cl)cc3)C2)C1 [Compound 218, 1-(4-chlorobenzyl)-3-(2-((2-methoxyphenyl)sulfonyl)-2-azaspiro[3.3]heptan-6-yl)urea] | – |
| 6.8 | 41.2 | CC(C)(C)OC(=O)N1CC[C@]2(C1)C[C@@H](NC(=O)NCc1ccc(Cl)cc1)C2 [Compound 151, tert-butyl (2r,4s)-2-(3-(4-chlorobenzyl)ureido)-6-azaspiro[3.4]octane-6-carboxylate] | – |
| 3.4 | 7.3 | CC1CCN(CC2CC3(C2)CC(NC(=O)NCc2ccc(Cl)cc2)C3)C1=O (stereo not shown) [Compound 244, 1-(4-chlorobenzyl)-3-(6-((3-methyl-2-oxopyrrolidin-1-yl)methyl)spiro[3.3]heptan-2-yl)urea] | – |
| 3.6 | 37.8 | COc1ccc(CNC(=O)NC2CC3(C2)CC(C(=O)N2CCS(=O)(=O)CC2)C3)cc1 (stereo not shown) [Compound 232, 1-(6-(1,1-dioxoidothiomorpholine-4-carbonyl)spiro[3.3]heptan-2-yl)-3-(4-methoxybenzyl)urea] | – |
| 0.1 | 3.9 | COc1ccc(CNC(=O)NCCCCCC(=O)N(C)c2ccccc2F)cc1 [Compound 282, N-(2-fluorophenyl)-6-(3-(4-methoxybenzyl)ureido)-N-methylhexanamide] | – |
| 0.8 | 0.8 | Cc1cccc(C)c1C(=O)N1CCC(CCCCNC(=O)NCc2ccc(Cl)cc2)CC1 [Compound 319, 1-(4-chlorobenzyl)-3-(4-(1-(2,6-dimethylbenzoyl)piperidin-4-yl)butyl)urea] | – |
| 1.0 | 10.1 | O=C(NCCCCC1CCN(C(=O)Cc2cccnc2)CC1)NCc1ccc(Cl)cc1 [Compound 294, 1-(4-chlorobenzyl)-3-(4-(1-(2-(pyridin-3-yl)acetyl)piperidin-4-yl)butyl)urea] | – |
| 5.0 | 5.9 | O=C(NCc1ccc(Cl)cc1)NC1CC2(C1)CC(OCc1ccncc1)C2 (stereo not shown) [Compound 348, 1-(4-chlorobenzyl)-3-(6-(pyridin-4-ylmethoxy)spiro[3.3]heptan-2-yl)urea] | – |
| 9.8 | 35.4 | COc1ccc(CNC(=O)NCCCCCNC(=O)OC(C)(C)C)cc1 [Compound 36, tert-butyl (5-(3-(4-methoxybenzyl)ureido)pentyl)carbamate] | – |
| 3.5 | 10.2 | CC(C)(O)CN1CCN(C(=O)C2CC3(CC(NC(=O)NCc4ccc(F)cc4)C3)C2)CC1 (stereo not shown) [Compound 109, 1-(4-fluorobenzyl)-3-(6-(4-(2-hydroxy-2-methylpropyl)piperazine-1-carbonyl)spiro[3.3]heptan-2-yl)urea] | – |
| 1.2 | 4.3 | O=C(NCc1ccc(Cl)cc1)NC1CC2(C1)CC(C(O)c1ccccc1)C2 (stereo not shown) [Compound 328, 1-(4-chlorobenzyl)-3-(6-(hydroxy(phenyl)methyl)spiro[3.3]heptan-2-yl)urea] | – |
| 0.7 | 5.1 | CN(Cc1ccccc1)C(=O)CCCCCNC(=O)NCc1ccc(Cl)cc1 [Compound 269, N-benzyl-6-(3-(4-chlorobenzyl)ureido)-N-methylhexanamide] | – |
| 0.2 | 1.6 | Cc1ccccc1C(=O)N1CCC(CCCCNC(=O)NCc2ccncc2)CC1 [Compound 323, 1-(4-(1-(2-methylbenzoyl)piperidin-4-yl)butyl)-3-(pyridin-4-ylmethyl)urea] | – |
| 1.3 | 3.9 | Cc1ccc(C(=O)NCCCCCNC(=O)NCc2ccc(Cl)cc2)cn1 [Compound 281, N-(5-(3-(4-chlorobenzyl)ureido)pentyl)-6-methylnicotinamide] | – |
| 1.5 | 2.3 | CN1CCN(CC2CC3(C2)CC(NC(=O)NCc2ccc(Cl)cc2)C3)C(c2ccccc2)C1 (stereo not shown) [Compound 254, 1-(4-chlorobenzyl)-3-(6-((4-methyl-2-phenylpiperazin-1-yl)methyl)spiro[3.3]heptan-2-yl)urea] | – |
| 16.0 | 53.4 | Cc1cc(C(=O)NC2CC3(CC(NC(=O)NCc4ccc(Cl)cc4)C3)C2)ccn1 (stereo not shown) [Compound 186, N-(6-(3-(4-chlorobenzyl)ureido)spiro[3.3]heptan-2-yl)-2-methylisonicotinamide] | – |
